pIC50: −log10 of the molar value.
How the values were obtained:
[1] = system: Amaranthus hybridus; assay: Pre-emergence germination assay in Petri dishes; type: in vivo; conditions: 168 h, A. hybridus, after 7 days of exposure, combined concentration of both active ingredients, read-out: Germination IC50 (Confidence limit 95%)
Procedure: (§1) Aqueous extracts containing binary mixtures of formulations: F1 (citral+pelargonic acid) and F2 (thymoquinone+pelargonic acid), in both cases with a 1:1 ratio between the active compounds and with the addition of an emulsifier (soy lecithin at 35% w/w, YPF Agro, 2022) at 0.2% v/v, were tested in Petri dishes following the methodology disclosed in U.S. Pat. No. 11,083,197, with some modifications. […] The extracts were placed onto 9-cm diameter paper disks in Petri dishes. Then, ten seeds of each species were placed onto paper disks. Subsequently, the dishes were closed under the following experimental conditions: room temperature, 26.0±1.8° C.; relative humidity, 50±9.7%; and photoperiod, 12:12. The seeds were considered germinated if their roots were longer than 1 mm. Aqueous extracts without the addition of the bioactive formulation were used as negative control, whereas atrazine was used as positive control. The assays were performed in triplicates for each concentration.
(§2) The IC50 were obtained using the software POLO PLUS (LeOra Software Company).
(§3) An aqueous extract comprising the emulsifier used in Example 1 at 0.2% w/w was prepared and seeds of different species were exposed to the extract following a methodology as the one used in Example 1. Pure water was used as a negative control.

[2] = system: Lolium multiflorum; assay: Pre-emergence germination assay in Petri dishes; type: in vivo; conditions: 168 h, L. multiflorum, after 7 days of exposure, combined concentration of both active ingredients, read-out: Germination IC50 (Confidence limit 95%)
Procedure: as §1, §2, §3

[3] = system: Solanum lycopersicum; assay: Pre-emergence germination assay in Petri dishes; type: in vivo; conditions: 168 h, S. lycopersicum, after 7 days of exposure, combined concentration of both active ingredients, read-out: Germination IC50 (Confidence limit 95%)
Procedure: as §1, §2, §3

[4] = system: seedlings of A. hybridus; assay: Early post-emergence damage to photosystem II (Fv/Fm fluorometry); type: in vivo, Amaranthus hybridus; conditions: 5 mM
Procedure: • Plant material and culturing conditions Seeds of Amaranthus hybridus were sown on plastic boxes of 15.5×11×4 cm with moist absorbing paper (25 seeds per box). The boxes were placed in a culture chamber at 22° C. and 50 μmol photons m^−2 s^−1 with a photoperiod of 16 hours. […] The application volume for each treatment was 10 ml per box on the absorbing paper. After 7 days post-application, to avoid possible chlorosis symptoms due to a lack of nutrients, 5 ml of nutritive solution were added to each box, with the following formulation: 5.0 mM Ca(NO3)2, 5.0 mM KNO3, 2.0 mM MgSO4, 1.0 mM KH2PO4, 20.0 μM FeNaEDTA, 5.0 μM H3BO3, 0.9 μM MnCl2, 0.8 μM ZnCl2, 0.3 μM CuSO4 y 0.01 μM Na2MoO4, pH 5.5-6.5. The experiments were finished 12 days post-application.
The tested formulations were F1 and F2, both at 5 mM. […]
The objective was to assess the early post-emergence effect of the tested formulations on seedlings of A. hybridus of 7 days post-sowing. At 1, 2, 5, 7 and 12 days post-application the fluorometry measurements (Fv/Fm) were carried out to ascertain the damage to photosystem II, and the plants with bleaching or chlorosis symptoms were counted. […]
For the experiments, three boxes per treatment were used: both experiments had 5 treatments. Each experiment was repeated 3 times (assays 1, 2 and 3), and each assay was analyzed separately. […]

[5] = system: Pseudomonas monteilii; assay: Effect on growth-promoting bacteria in liquid culture; type: cell-based; conditions: C + N 5 mM combined; F3, F4, F5 0.5% v/v; atrazine 5 mM; LB medium, 32° C.; Gompertz model
Procedure: To evaluate the effect of the compositions prepared in Example 6 on growth-promoting bacteria, a model strain of Pseudomonas monteilii was used. The microorganism was inoculated in liquid LB medium (initial optical density at 600 nm=0.1), and incubated in Erlenmeyer flasks at 32° C., 180 rpm. The effect of the active compounds (citral (C)+pelargonic acid (N), at a combined concentration of 5 mM), F3, F4 and F5 (all three at 0.5% v/v) and atrazine (5 mM) was assessed by adding each treatment to the culture medium at the moment of inoculation. The positive growth control was performed without adding any compound. Liquid samples were taken during the growth, and the biomass of the cultures was evaluated using the drop plate method described by Herigstad et al. (2001). Three repetitions were carried out in different times and the results were analyzed with the software Statistica (StatSoft, 2007) to adjust them to the Gompertz model, and thus calculate the growth parameters.

CCNc1nc(Cl)nc(NC(C)C)n1 [Atrazine, atrazine]
pIC50 [1]: 1.39 | pIC50 [2]: 1.41 | pIC50 [3]: 1.43 | Course of Fv/Fm values ([4]; day 1 to 12 days post-application): gradual fall in the Fv/Fm values from day 1 until reaching minimum or non-measurable values at 12 days | Effects on photosystem II in comparison to treatments F1 and F2 ([4]; every assay): lower effects | Duplication time [5]: 22.03 min | Lag pase length [5]: 1.3 h | maximum growth rate μmax [5]: 1.89 h⁻¹

Reference: patent US20240415120A1, “BINARY BIOHERBICIDE COMPRISING PELARGONIC ACID” (YPF TECNOLOGÍA S.A., priority 2023, published 2024)
